Measurements reported in US6420558B1, “Aminopiperidine derivates as integrin αvβ3 antagonists” (Meiji Seika Kaisha, Ltd., priority 1998, dated 2002).

Assays:
[1] = Oral absorption in rats; format: in vivo; details: data not shown
Excerpt: Therefore, any of the compounds, wherein R^12 represents an alkyl group or a hydrogen atom, can be used in the treatment of the above diseases.

[2] = test system: human vascular smooth muscle cells adhering to immobilized human vitronectin; assay: Inhibitory activity against adhesion of human vascular smooth muscle cells to vitronectin; format: cell-based; details: 1.5 h; human vitronectin-coated plate, 90 min
Method: Inhibitory Activity Against Adhesion of Human Vascular Smooth Muscle Cells to Vitronectin
The adhesion of human vascular smooth muscle cells =+to immobilized human vitronectin was measured in accordance with the method of Liaw et al. (Liaw L, Almeida M, Hart C E, Schwartz S M, and Giachelli C M, Circulation Research, 74 (2), 214-224 (1994)).
A Dulbecco's phosphate buffer (Dulbecco's PBS(−), Nissui Pharmaceutical Co., Ltd.) solution of human plasma-derived vitronectin (CALBIOCHEM) adjusted to a concentration of 4 μg/ml was first added to wells (50 μl/well) of a microplate (Maxisorp, Nunc), and a reaction for immobilization was allowed to proceed at 4° C. overnight. After washing twice with 150 μl of Dulbecco's phosphate buffer, a Dulbecco's phosphate buffer containing 10 mg/ml of bovine serum albumin (SIGMA) was added, followed by blocking at 37° C. for one hr. The assay plate was washed twice with 150 μl of Dulbecco's phosphate buffer.
Separately, human vascular smooth muscle cells cultivated at 37° C. under 5% carbon dioxide in a medium for vascular smooth muscle cells (Clonetics) were separated using a Dulbecco's phosphate buffer containing trypsin-EDTA (GIBCO BRL), washed with Dulbecco's phosphate buffer, and then suspended in a Dulbecco's modified Eagle's basal medium (Nissui Pharmaceutical Co., Ltd.) containing 0.1% bovine serum albumin to a concentration of 5×10^5/ml.
Next, 50 μl of a Dulbecco's modified Eagle's basal medium containing 10 mg/ml of bovine serum albumin with a medicament added thereto was added to the wells of the human vitronectin-coated assay microplate, followed by pre-cultivation under 5% carbon dioxide at 37° C. for 10 min. Thereafter, 50 μl of the medium with human vascular smooth muscle cells suspended therein was added thereto, and the plate was thoroughly stirred. A reaction was allowed to proceed under 5% carbon dioxide at 37° C. for 90 min. The reaction solution containing non-adherent cells were then removed, followed by washing three times with Dulbecco's phosphate buffer. For the adhered cells, 100 μl of a Dulbecco's phosphate buffer containing 4% paraformaldehyde (Wako Pure Chemical Industries, Ltd.) was added, and immobilization was allowed to proceed at room temperature for 10 min. Next, 100 μl of a Dulbecco's phosphate buffer containing 0.5% Toluidine Blue (Croma) and 4% paraformaldehyde was added, and staining was allowed to proceed at room temperature for 5 min, followed by thorough washing with distilled water. The inside of the wells was then air-dried, and a 1% aqueous sodium dodecylsulfate solution was then added to perform cytolysis. The absorbance of the microplate thus obtained was measured at 595 nm. […] The inhibition was calculated by the following equation. IC50 was determined from a primary regression line of the logarithm of each concentration of the test compound and the logarithm of (100−inhibition)/inhibition. [formula]

[3] = target: T1, integrin αvβ3 (vitronectin receptor purified from the human placenta) (Homo sapiens, UniProt P05106+P06756); assay: αvβ3 binding assay (vitronectin-vitronectin receptor binding assay); details: vitronectin binding to human placenta vitronectin receptor; read-out: integrin αvβ3 antagonistic activity, IC50 value
T1 construct: a vitronectin receptor (protein content: 118 μg/ml) purified from the human placenta; from tissue; host or cells: human placenta
T1 sequence (P06756 31-889 limits assumed): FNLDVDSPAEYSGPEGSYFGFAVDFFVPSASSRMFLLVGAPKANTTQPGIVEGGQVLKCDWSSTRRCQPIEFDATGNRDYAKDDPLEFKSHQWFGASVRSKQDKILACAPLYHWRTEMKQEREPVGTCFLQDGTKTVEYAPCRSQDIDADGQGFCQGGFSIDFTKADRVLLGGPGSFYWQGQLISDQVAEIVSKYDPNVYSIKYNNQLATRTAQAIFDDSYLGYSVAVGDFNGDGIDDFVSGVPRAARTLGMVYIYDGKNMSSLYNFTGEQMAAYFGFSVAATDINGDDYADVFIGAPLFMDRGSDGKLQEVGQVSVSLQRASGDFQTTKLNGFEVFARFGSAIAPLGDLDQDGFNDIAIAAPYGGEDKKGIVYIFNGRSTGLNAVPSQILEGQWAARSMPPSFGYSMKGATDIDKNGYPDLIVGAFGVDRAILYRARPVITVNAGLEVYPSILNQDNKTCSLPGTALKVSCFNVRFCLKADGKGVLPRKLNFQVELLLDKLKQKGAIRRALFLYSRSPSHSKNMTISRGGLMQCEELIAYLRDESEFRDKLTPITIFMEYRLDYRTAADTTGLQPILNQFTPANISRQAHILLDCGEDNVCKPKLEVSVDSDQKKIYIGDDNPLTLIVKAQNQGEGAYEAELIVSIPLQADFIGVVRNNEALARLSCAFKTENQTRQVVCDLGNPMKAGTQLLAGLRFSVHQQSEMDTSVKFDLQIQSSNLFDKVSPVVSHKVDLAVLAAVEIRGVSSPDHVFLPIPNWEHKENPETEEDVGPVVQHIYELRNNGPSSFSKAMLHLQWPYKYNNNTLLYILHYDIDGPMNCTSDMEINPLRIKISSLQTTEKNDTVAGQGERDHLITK
T1 sequence (P06756 891-1048 limits assumed): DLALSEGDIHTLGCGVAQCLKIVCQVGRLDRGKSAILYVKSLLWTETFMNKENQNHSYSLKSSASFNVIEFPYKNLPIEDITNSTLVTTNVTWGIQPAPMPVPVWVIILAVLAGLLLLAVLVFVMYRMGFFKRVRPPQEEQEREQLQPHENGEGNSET
T1 sequence (P05106 27-788): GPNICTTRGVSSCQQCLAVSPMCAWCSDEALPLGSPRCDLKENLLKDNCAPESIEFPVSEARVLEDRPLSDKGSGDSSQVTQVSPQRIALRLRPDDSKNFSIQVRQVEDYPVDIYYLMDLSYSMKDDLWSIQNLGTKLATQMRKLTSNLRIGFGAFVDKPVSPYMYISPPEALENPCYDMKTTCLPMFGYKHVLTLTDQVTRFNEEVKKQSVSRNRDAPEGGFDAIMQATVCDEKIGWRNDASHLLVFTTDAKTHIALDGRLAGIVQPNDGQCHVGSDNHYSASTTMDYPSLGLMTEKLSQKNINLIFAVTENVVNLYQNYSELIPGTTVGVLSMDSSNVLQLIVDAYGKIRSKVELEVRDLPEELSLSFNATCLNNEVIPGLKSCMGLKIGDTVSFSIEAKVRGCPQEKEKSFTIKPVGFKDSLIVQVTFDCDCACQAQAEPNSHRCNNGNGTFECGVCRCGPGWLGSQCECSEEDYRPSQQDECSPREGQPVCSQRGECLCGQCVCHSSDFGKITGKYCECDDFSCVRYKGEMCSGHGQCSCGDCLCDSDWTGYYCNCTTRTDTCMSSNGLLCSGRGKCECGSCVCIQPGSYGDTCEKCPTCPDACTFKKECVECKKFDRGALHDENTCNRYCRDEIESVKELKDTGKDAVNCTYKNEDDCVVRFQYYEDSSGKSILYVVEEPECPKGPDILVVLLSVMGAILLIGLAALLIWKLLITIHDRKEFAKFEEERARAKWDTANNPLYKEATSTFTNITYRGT
Method: Integrin αvβ3 antagonistic activity was measured for the compounds according to the present invention in a vitronectin-vitronectin receptor binding assay system in accordance with the method of Kouns et al. (W. C. Kouns, D. Kirchhofer, P. Hadvary, A. Edenhofer, T. Weller, G. Pfenninger, H. R. Baumgartner, L. K. Jennings and B. Steiner, Blood, 80, 2539-2547 (1992)).
Specifically, a vitronectin receptor (protein content: 118 μg/ml) purified from the human placenta in accordance with the method of Pytela et al. (R. Pytela, M. D. Pierschbacher, S. Argraves, S. Suzuki, and E. Ruoslahti, Method in Enzymology, 144, 475-489 (1987)) was diluted 50 times with TBS (20 mM Tris-HCl, 150 mM NaCl, 1 mM CaCl2, 1 mM MgCl2, pH 7.4), and distributed and coated on wells (50 μl/well) of a plate (Maxisorp, Nunc, 96 well Immuno Plate). The plate was then allowed to stand at 4° C. for 1 day, washed twice with TBS (200 μl/well), and then subjected to blocking with TBS (150 μl/well) containing 1% bovine serum albumin (SIGMA) at 4° C. overnight. After washing twice with TBS (200 μl/well), 50 μl of vitronectin (CALBIOCHEM) adjusted to 0.2 μg/ml by the addition of TBS (TBS-Tween) containing 0.01% Tween-20 was mixed with 50 μl of each test compound adjusted to each concentration in wells, and a reaction was allowed to proceed at room temperature for 4 hr. After the completion of the reaction, the wells were washed five times with TBS-Tween. A solution prepared by diluting anti-vitronectin rabbit antiserum (CHEMICON) 500 times with TBS-Tween was added as a primary antibody in an amount of 50 μl/well, and a reaction was allowed to proceed at room temperature for 1.5 hr. After washing five times with 200 μl/well of TBS-Tween, a peroxidase (POD)-labeled anti-rabbit IgG antibody solution (CAPPEL) diluted 500 times with TBS-Tween was added as a secondary antibody in an amount of 50 μl/well, and a reaction was allowed to proceed at room temperature for 1.5 hr. After washing five times with TBS-Tween (200 μl/well), ABTS (2,2′-azino-bis(3-ethylbenzthiazoline-6-sulfonic acid), SIGMA) was adjusted to 1 mg/ml by the addition of a ten-fold diluted POD-buffer (ZYMED), and added in an amount of 50 μl/well, and a reaction was allowed to proceed for 5 to 10 min. A 0.1 M citric acid buffer (pH 4.3) containing 0.05% NaN3 was added in an amount of 50 μl/well to stop the reaction, followed by the measurement of the absorbance at 415 nm with a microplate reader (MTP 32, Corona Electric) (reference: 675 nm). The total binding was defined as the absorbance after a reaction using 50 μl of TBS-Tween instead of the test compound, and the non-specific binding (100% inhibition) was defined as the absorbance after a reaction using 50 μl of TBS-Tween containing 2×10^−3 M RGDS. The inhibition was calculated by the following equation: [formula]
IC50 was determined from a primary regression line of the logarithm of each concentration of the test compound and the logarithm of (100−inhibition)/inhibition.

[4] = target: GP IIb/IIIa (Homo sapiens, UniProt P05106+P08514); assay: GP IIb/IIIa antagonistic activity (method of Pharmacological Test 2 in WO 94/21599); format: binding
GP IIb/IIIa, sequence (P08514 32-887 limits assumed): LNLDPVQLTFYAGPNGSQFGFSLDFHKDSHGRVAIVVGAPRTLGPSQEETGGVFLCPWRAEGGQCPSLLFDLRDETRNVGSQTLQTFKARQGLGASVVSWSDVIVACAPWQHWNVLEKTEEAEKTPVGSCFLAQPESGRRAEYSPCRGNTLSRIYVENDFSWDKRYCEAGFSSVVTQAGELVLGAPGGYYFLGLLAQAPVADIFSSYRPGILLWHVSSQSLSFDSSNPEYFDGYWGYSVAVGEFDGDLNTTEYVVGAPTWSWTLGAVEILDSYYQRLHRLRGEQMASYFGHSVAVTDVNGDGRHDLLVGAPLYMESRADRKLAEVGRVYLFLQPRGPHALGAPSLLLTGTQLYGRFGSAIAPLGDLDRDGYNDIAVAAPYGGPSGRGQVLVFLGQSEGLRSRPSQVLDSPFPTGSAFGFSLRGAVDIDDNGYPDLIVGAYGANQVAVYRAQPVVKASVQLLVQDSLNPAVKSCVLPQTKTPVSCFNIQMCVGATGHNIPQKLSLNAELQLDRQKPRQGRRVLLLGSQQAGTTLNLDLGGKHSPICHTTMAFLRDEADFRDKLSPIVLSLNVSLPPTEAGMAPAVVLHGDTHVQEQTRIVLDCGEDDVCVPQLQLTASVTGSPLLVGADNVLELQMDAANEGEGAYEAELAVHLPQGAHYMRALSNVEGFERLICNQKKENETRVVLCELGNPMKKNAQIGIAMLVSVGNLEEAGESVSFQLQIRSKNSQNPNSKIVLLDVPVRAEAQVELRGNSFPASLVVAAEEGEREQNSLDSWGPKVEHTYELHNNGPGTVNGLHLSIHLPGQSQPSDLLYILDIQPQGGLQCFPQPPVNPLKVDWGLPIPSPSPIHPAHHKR
GP IIb/IIIa, sequence (P08514 891-1039 limits assumed): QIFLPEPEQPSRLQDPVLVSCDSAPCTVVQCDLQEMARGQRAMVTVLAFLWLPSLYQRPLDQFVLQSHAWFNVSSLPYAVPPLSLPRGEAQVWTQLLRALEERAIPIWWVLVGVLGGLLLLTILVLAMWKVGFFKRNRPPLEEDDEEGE
GP IIb/IIIa, sequence (P05106 27-788): as the sequence (P05106 27-788) above
Method: (§1) GP IIb/IIIa Antagonistic Activity and Human Platelet Aggregation Inhibitory Activity
GP IIb/IIIa antagonistic activity was measured for the compounds according to the present invention. The measurement of the GP IIb/IIIa antagonistic activity was carried out according to the method described in Pharmacological Test 2 in WO 94/21599.

[5] = test system: human platelet aggregation; assay: Human platelet aggregation inhibitory activity (method of Pharmacological Test 1 in WO 94/21599); format: cell-based; details: human platelets, read-out: inhibition of human platelet aggregation, IC5. value
Method: as §1
Human platelet aggregation inhibitory activity was measured for the compounds according to the present invention. The measurement of the human platelet aggregation activity was carried out according to the method described in Pharmacological Test 1 in WO 94/21599.

Row | Compound | oral absorption [1] | IC50 [2] [nM] | IC50 [3] [nM] | IC50 [4] [nM] | IC50 [5] [nM]
1 | O=C(NC[C@H](NS(=O)(=O)c1ccccc1)C(=O)O)c1ccc(N2CCC(Nc3ncccn3)CC2)c(Cl)c1 [Example 59, (2S)-Benzenesulfonylamino-3-[3-chloro-4-{4-(pyrimidin-2-ylamino)piperidin-1-yl}benzoylamino]-propionic acid] | had oral absorption |  |  |  | 
2 | O=C(NC[C@H](NS(=O)(=O)c1ccccc1)C(=O)O)c1ccc(N2CCC(NC3=NCCCN3)CC2)c(Cl)c1 [Example 60, (2S)-Benzenesulfonylamino-3-[3-chloro-4-{4-(1,4,5,6-tetrahydropyrimidin-2-ylamino)piperidin-1-yl}-benzoylamino]propionic acid] |  | ≤ 70 | ≤ 1 | ≤ 1 | ≤ 90
